Source: BindingDB's records for doi:10.1021/acs.biochem.6b00412 (Duquesne University, 2016)

Biological target: T1, Trifunctional purine biosynthetic protein adenosine-3 (Homo sapiens, UniProt P22102)
T1 sequence (P22102 whole entry): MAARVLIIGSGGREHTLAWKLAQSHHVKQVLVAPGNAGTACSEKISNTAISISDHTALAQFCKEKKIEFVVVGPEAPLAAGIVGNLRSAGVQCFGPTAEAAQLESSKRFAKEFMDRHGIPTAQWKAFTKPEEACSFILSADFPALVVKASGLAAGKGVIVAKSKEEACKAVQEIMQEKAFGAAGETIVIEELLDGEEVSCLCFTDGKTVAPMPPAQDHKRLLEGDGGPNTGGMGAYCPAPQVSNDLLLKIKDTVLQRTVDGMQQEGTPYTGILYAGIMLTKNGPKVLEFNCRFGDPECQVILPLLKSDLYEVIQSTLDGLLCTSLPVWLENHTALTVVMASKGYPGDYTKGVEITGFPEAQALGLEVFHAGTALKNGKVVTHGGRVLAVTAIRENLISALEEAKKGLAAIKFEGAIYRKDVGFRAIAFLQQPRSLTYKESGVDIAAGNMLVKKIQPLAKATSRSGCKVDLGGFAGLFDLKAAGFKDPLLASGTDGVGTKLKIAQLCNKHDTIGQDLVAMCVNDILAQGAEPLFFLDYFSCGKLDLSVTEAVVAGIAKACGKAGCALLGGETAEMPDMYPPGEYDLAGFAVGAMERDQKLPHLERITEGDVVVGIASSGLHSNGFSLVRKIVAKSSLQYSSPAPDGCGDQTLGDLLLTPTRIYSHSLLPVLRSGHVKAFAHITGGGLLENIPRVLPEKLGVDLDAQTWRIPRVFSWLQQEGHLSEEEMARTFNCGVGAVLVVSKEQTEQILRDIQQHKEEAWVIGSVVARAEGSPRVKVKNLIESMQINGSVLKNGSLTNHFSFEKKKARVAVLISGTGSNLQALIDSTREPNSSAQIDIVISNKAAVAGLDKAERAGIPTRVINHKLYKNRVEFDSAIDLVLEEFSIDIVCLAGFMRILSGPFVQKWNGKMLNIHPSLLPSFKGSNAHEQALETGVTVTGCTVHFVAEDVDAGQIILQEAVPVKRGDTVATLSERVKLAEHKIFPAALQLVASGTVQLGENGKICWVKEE
Assay: GAR Transformylase Inhibition Assay
Settings: pH 7.5
Description: To initiate the assay, 150 μL of 20 nM His-GARFTase or buffer was added, and the plate was shaken for 5 s. […] For each antifolate, triplicate assays were performed at 20 different drug concentrations.

| SMILES | Ki [µM] |
| --- | --- |
| Nc1nc2[nH]c(CCCCCCCC(=O)N[C@@H](CCC(=O)O)C(=O)O)cc2c(=O)[nH]1 | 0.099 |
| Nc1nc2[nH]c(CCCCCCC(=O)N[C@H](CCC(=O)O)C(=O)O)cc2c(=O)[nH]1 [AGF145] | 0.067 |
| Nc1nc2[nH]c(CCCCc3ccc(C(=O)N[C@@H](CCC(=O)O)C(O)O)cc3)cc2c(=O)[nH]1 [AGF23] | 0.017 |
| Nc1nc2sc(CCCCc3ccc(C(=O)N[C@@H](CCC(=O)O)C(O)O)cc3)cc2c(=O)[nH]1 [AGF50] | 1.07 |
| Nc1nc2[nH]c(CCCCc3ccc(C(=O)N[C@@H](CCC(=O)O)C(=O)O)s3)cc2c(=O)[nH]1 [(S)-2-({5-[4-(2-Amino-4-oxo-4,7-dihydro-3H-pyrrolo[2,3-d]-pyrimidin-6-yl)-butyl]-thiophene-2-carbonyl}-amino)-pentanedioicAcid] | 0.022 |
